Reference: patent US20250228239A1, “MOLECULES HAVING PESTICIDAL UTILITY, AND INTERMEDIATES, COMPOSITIONS, AND PROCESSES, RELATED THERETO” (priority 2024, published 2025)
Where two headings read alike, the source gives them in different places.

Experiments:
[1] = test system: Beet Armyworm (Spodoptera exigua, LAPHEG); experiment: Bioassays on Beet Armyworm (BAW), 128-well diet tray assay; assay type: in vivo; settings: Spodoptera exigua
Outline: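 Test molecule was dissolved in 90:10 acetone-water and applied at 50 μg/cm^2 onto artificial diet in eight wells, then dried. Second instar larvae, one to five per well, were added, and trays were kept vented at 25° C. with a 14:10 photoperiod for five to seven days before mortality was recorded.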

[2] = test system: Cabbage Looper (Trichoplusia ni, TRIPNI); experiment: Bioassays on Cabbage Looper (CL), 128-well diet tray assay; assay type: in vivo; settings: Trichoplusia ni
Outline: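 One to five second-instar larvae per well on artificial diet surface-treated with 50 μg/cm^2 test molecule (applied in 90:10 acetone-water, dried). Held 5–7 days at 25° C, 14:10 light-dark; percent mortality recorded per well and averaged over eight wells.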

[3] = Beet Armyworm, Table ABC / ABC-DP rating, read-out: BAW rating
[4] = Cabbage Looper, Table ABC / ABC-DP rating, read-out: CL rating
[5] = Beet Armyworm, rating class, read-out: BAW
[6] = Cabbage Looper, rating class, read-out: CL
[7] = Table ABC: Biological Results, species BAW, read-out: BAW
[8] = Table ABC: Biological Results, species CL, read-out: CL

Structure (SMILES)	pest or weed control at 50 µg/cm2 [1, 5] [%]	pest or weed control at 50 µg/cm2 [2, 6] [%]	pest or weed control at 50 µg/cm2 [1, 7] [%]	pest or weed control at 50 µg/cm2 [2, 8] [%]	further results
C#CCN(C(=O)COC(F)(F)F)c1c(F)ccc(NC(=O)c2cc(NC(=O)[C@H]3[C@H](c4ccc(F)c(C(F)(F)F)c4)C3(Cl)Cl)ccc2Cl)c1F [F1811, 2-Chloro-5-((1R,3R)-2,2-dichloro-3-(4-fluoro-3-(trifluoromethyl)phenyl)cyclopropane-1-carboxamido)-N-(2,4-difluoro-3-(N-(prop-2-yn-1-yl)-2-(trifluoromethoxy)acetamido)phenyl)benzamide]	–	–	–	–	pest or weed control at 50 µg/cm2 [1, 3]: 50 to 100%; pest or weed control at 50 µg/cm2 [2, 4]: 50 to 100%
CC(=O)Nc1ccc(F)c(NC(=O)c2cc(NC(=O)[C@H]3[C@H](c4ccc(Cl)c(Cl)c4)C3(Cl)Cl)ccc2F)c1F [F1514, N-(3-Acetamido-2,6-difluorophenyl)-5-((1R,3R)-2,2-dichloro-3-(3,4-dichlorophenyl)cyclopropane-1-carboxamido)-2-fluorobenzamide]	50 to 100	50 to 100	–	–	–
Cc1cc(NC(=O)[C@H]2[C@H](c3ccc(F)c(C(F)(F)F)c3)C2(Cl)Cl)cc(C(=O)Nc2ccc(F)c(NC(=O)C(F)F)c2F)c1Cl [F1494, 2-Chloro-5-((1R,3R)-2,2-dichloro-3-(4-fluoro-3-(trifluoromethyl)phenyl)cyclopropane-1-carboxamido)-N-(3-(2,2-difluoroacetamido)-2,4-difluorophenyl)-3-methylbenzamide]	50 to 100	50 to 100	–	–	–
O=C(Nc1ccc(F)cc1NC(=O)C(F)F)c1cc(NC(=O)[C@H]2[C@H](c3ccc(Cl)c(Cl)c3)C2(Cl)Cl)ccc1Cl (relative stereo) [F1123, trans-2-Chloro-5-(2,2-dichloro-3-(3,4-dichlorophenyl)cyclopropane-1-carboxamido)-N-(2-(2,2-difluoroacetamido)-4-fluorophenyl)benzamide]	–	–	50 to 100	50 to 100	–
CN(C(=O)c1cc(NC(=O)[C@H]2[C@H](c3ccc(Cl)c(Cl)c3)C2(Cl)Cl)ccc1Cl)c1ccc(F)c(N)c1F [F1056, N-(3-Amino-2,4-difluorophenyl)-2-chloro-5-((1R,3R)-2,2-dichloro-3-(3,4-dichlorophenyl)cyclopropane-1-carboxamido)-N-methylbenzamide]	–	–	50 to 100	50 to 100	–
O=C(Nc1ccc(F)cc1F)c1c(Cl)ccc(NC(=O)[C@H]2[C@H](c3ccc(F)c(Cl)c3)C2(Cl)Cl)c1F [F1464, 6-Chloro-3-((1R,3R)-2,2-dichloro-3-(3-chloro-4-fluorophenyl)cyclopropane-1-carboxamido)-N-(2,4-difluorophenyl)-2-fluorobenzamide]	50 to 100	50 to 100	–	–	–
O=C(Nc1c(F)ccc(NC(=O)C(F)F)c1F)c1cc(NC(=O)[C@H]2[C@H](c3cc(Cl)c(Cl)c(Cl)c3)C2(Cl)Cl)cc(F)c1F [F1589, 5-((1R,3R)-2,2-Dichloro-3-(3,4,5-trichlorophenyl)cyclopropane-1-carboxamido)-N-(3-(2,2-difluoroacetamido)-2,6-difluorophenyl)-2,3-difluorobenzamide]	50 to 100	50 to 100	–	–	–
N#Cc1cc(NC(=O)c2cc(NC(=O)[C@H]3[C@H](c4ccc(F)c(Cl)c4)C3(Cl)Cl)ccc2Cl)ccc1NC(=O)C(F)(F)F (relative stereo) [F1388, trans-2-Chloro-N-(3-cyano-4-(2,2,2-trifluoroacetamido)phenyl)-5-(2,2-dichloro-3-(3-chloro-4-fluorophenyl)cyclopropane-1-carboxamido)benzamide]	–	–	50 to 100	50 to 100	–
CC(=O)Nc1ccc(NC(=O)c2cc(NC(=O)[C@H]3[C@H](c4ccc(F)c(Cl)c4)C3(Cl)Cl)cc(F)c2F)cc1 (relative stereo) [F1210, trans-N-(4-Acetamidophenyl)-5-(2,2-dichloro-3-(3-chloro-4-fluorophenyl)cyclopropane-1-carboxamido)-2,3-difluorobenzamide]	–	–	50 to 100	50 to 100	–
O=C(Nc1ccc(F)c(NC(=O)C(F)F)c1F)c1cc(NC(=O)[C@H]2[C@H](c3cc(Cl)cc(Cl)c3)C2(Cl)Cl)cc(F)c1Cl [F1333, 2-Chloro-5-((1R,3R)-2,2-dichloro-3-(3,5-dichlorophenyl)cyclopropane-1-carboxamido)-N-(3-(2,2-difluoroacetamido)-2,4-difluorophenyl)-3-fluorobenzamide]	–	–	50 to 100	50 to 100	–
O=C(NCC(F)(F)C(F)(F)F)c1cc(NC(=O)[C@H]2[C@H](c3ccc(F)c(Cl)c3)C2(Cl)Cl)cc(F)c1F (relative stereo) [F2050, trans-5-(2,2-Dichloro-3-(3-chloro-4-fluorophenyl)cyclopropane-1-carboxamido)-2,3-difluoro-N-(2,2,3,3,3-pentafluoropropyl)benzamide]	–	–	–	–	pest or weed control at 50 µg/cm2 [1, 3]: 50 to 100%; pest or weed control at 50 µg/cm2 [2, 4]: 50 to 100%
O=C(Nc1ccc(F)cc1F)c1cc(NC(=O)[C@H]2[C@H](c3ccc(F)c(Cl)c3)C2(Cl)Cl)cc(F)c1F (relative stereo) [F1209, trans-5-(2,2-Dichloro-3-(3-chloro-4-fluorophenyl)cyclopropane-1-carboxamido)-N-(2,4-difluorophenyl)-2,3-difluorobenzamide]	–	–	50 to 100	50 to 100	–
CC(=O)Nc1ccc(F)c(NC(=O)c2cc(NC(=O)[C@H]3[C@H](c4cc(Cl)c(Cl)c(Cl)c4)C3(Cl)Cl)cc(F)c2F)c1F [F1590, N-(3-Acetamido-2,6-difluorophenyl)-5-((1R,3R)-2,2-dichloro-3-(3,4,5-trichlorophenyl)cyclopropane-1-carboxamido)-2,3-difluorobenzamide]	50 to 100	50 to 100	–	–	–
Cc1cc(NC(=O)[C@H]2[C@H](c3ccc(F)c(Cl)c3)C2(Cl)Cl)cc(C(=O)Nc2ccc(F)c(N)c2F)c1Cl (relative stereo) [F1222, trans-N-(3-Amino-2,4-difluorophenyl)-2-chloro-5-(2,2-dichloro-3-(3-chloro-4-fluorophenyl)cyclopropane-1-carboxamido)-3-methylbenzamide]	–	–	50 to 100	50 to 100	–
CC(=O)Nc1c(F)cc(F)cc1NC(=O)c1cc(NC(=O)[C@H]2[C@H](c3cc(Cl)cc(Cl)c3)C2(Cl)Cl)ccc1Cl (relative stereo) [F1632, trans-N-(2-Acetamido-3,5-difluorophenyl)-2-chloro-5-(2,2-dichloro-3-(3,5-dichlorophenyl)cyclopropane-1-carboxamido)benzamide]	50 to 100	50 to 100	–	–	–
Cc1cc(NC(=O)[C@H]2[C@H](c3ccc(F)c(C(F)(F)F)c3)C2(Cl)Cl)cc(C(=O)Nc2c(F)ccc(N)c2F)c1Cl [F1428, N-(3-Amino-2,6-difluorophenyl)-2-chloro-5-((1R,3R)-2,2-dichloro-3-(4-fluoro-3-(trifluoromethyl)phenyl)cyclopropane-1-carboxamido)-3-methylbenzamide]	50 to 100	50 to 100	–	–	–
O=C(Nc1c(F)ccc(NC(=O)C(F)(F)F)c1F)c1cc(NC(=O)[C@H]2[C@H](c3cc(Cl)c(Cl)c(Cl)c3)C2(Cl)Cl)ccc1Cl [F1516, 2-Chloro-5-((1R,3R)-2,2-dichloro-3-(3,4,5-trichlorophenyl)cyclopropane-1-carboxamido)-N-(2,6-difluoro-3-(2,2,2-trifluoroacetamido)phenyl)benzamide]	50 to 100	50 to 100	–	–	–
O=C(Nc1c(F)cc(F)cc1F)c1cc(NC(=O)[C@H]2[C@H](c3cc(Cl)cc(Cl)c3)C2(Cl)Cl)ccc1Cl (single isomer, unassigned) [F1377]	–	–	50 to 100	50 to 100	–
Cc1cc(NC(=O)[C@H]2[C@H](c3ccc(F)c(Cl)c3)C2(Cl)Cl)cc(C(=O)Nc2ccc(F)c(N)c2F)c1F (relative stereo) [F1151, trans-N-(3-Amino-2,4-difluorophenyl)-5-(2,2-dichloro-3-(3-chloro-4-fluorophenyl)cyclopropane-1-carboxamido)-2-fluoro-3-methylbenzamide]	–	–	50 to 100	50 to 100	–
COC(=O)C(=O)Nc1c(F)ccc(NC(=O)c2cc(NC(=O)[C@H]3[C@H](c4ccc(F)c(C(F)(F)F)c4)C3(Cl)Cl)ccc2Cl)c1F [F1753, Methyl 2-((3-(2-chloro-5-((1R,3R)-2,2-dichloro-3-(4-fluoro-3-(trifluoromethyl)phenyl)cyclopropane-1-carboxamido)benzamido)-2,6-difluorophenyl)amino)-2-oxoacetate]	50 to 100	50 to 100	–	–	–
Nc1c(F)ccc(NC(=O)c2cc(NC(=O)[C@H]3[C@H](c4ccc(F)c(C(F)F)c4)C3(Cl)Cl)ccc2Cl)c1F (relative stereo) [F1036, trans-N-(3-Amino-2,4-difluorophenyl)-2-chloro-5-(2,2-dichloro-3-(3-(difluoromethyl)-4-fluorophenyl)cyclopropane-1-carboxamido)benzamide]	–	–	50 to 100	50 to 100	–
Nc1cc(F)c(NC(=O)c2cc(NC(=O)[C@H]3[C@H](c4cc(Cl)c(Cl)c(Cl)c4)C3(Cl)Cl)ccc2Cl)c(F)c1 [F1029, N-(4-Amino-2,6-difluorophenyl)-2-chloro-5-((1R,3R)-2,2-dichloro-3-(3,4,5-trichlorophenyl)cyclopropane-1-carboxamido)benzamide]	–	–	50 to 100	50 to 100	–
